Assays:
[1] = test system: eGFP+ and eGFP− H460 and B16F10 tumors; test: Tumor-transplanted animal test (cFRET PDT); format: in vivo, mice
Description: B 16F10 and GFP-B16-F0 Melanoma cells were harvested using a cell lifter and were resuspended in serum-free DMEM. Approximately 2×10^6/100 μL of B16F10 and GFP-B16-F0 melanoma cells were subcutaneously injected into both sides of female C57BL/6 mice. After 10 to 15 days, mice were divided into 4 groups based on the mean tumor diameter when the mean tumor diameter reached a minimum of 0.3 cm. The mice were then randomly divided into 4 groups (n=5 per group). Control animals received 0.9% saline instead of chemical substance.
In the experimental group, RB ([…], 53 nM/mL) was intravenously administered thereto twice a week, and blue light (2 min) was irradiated to the tumor site in 4 hours after the injection. The mouse body weight and tumor volume were measured twice a week. Three weeks later, the mice were euthanized. Tumors were removed therefrom and fixed to 10% neutral buffered formalin. The next day, the image was captured. Similar experiments were performed on GFP+ and GFP-H460 cells. About 2×10^6/100 μL of cells were injected subcutaneously into both sides thereof.

[2] = test system: eGFP+ 4T1 cells; test: In vitro PDT with rose bengal and blue laser light, MTT analysis; format: cell-based
Description: The photo inducing death of GFP− and GFP+ cells after blue light irradiation was measured by MTT analysis in the presence or absence of rose bengal (RB). The specific experimental procedure is as follows.
RB was diluted with DMEM containing 10% FBS to produce RB at concentrations of 6.25, 12.5, 25, 50, and 100 μM. GFP− and GFP+ cells were pre-incubated in 96-well, black, and clear bottom plates at a density of 2×10^4 cells per well. Then cells were incubated with RB for 4 hours. The addition of a fresh culture medium without photosensitizer to the wells was performed. This was used as an untreated control. Cells were washed 3 times with PBS buffer.
In the PDT-treated group, the cell was irradiated with blue laser light (473 nm, radiation dose rate=80 mW/cm^2) for 1 to 60 seconds. The toxicity of pure RB on GFP+ and GFP− cells was measured in the dark room. After the irradiation, the fresh culture medium was added to the wells, and cells were cultured again for 24 hours. The medium was then measured by MTT assay. 150 μL of solubilizing solution and stop solution were added thereto, followed by incubation at 37° C. for 4 hours. The absorbance of the reaction solution was measured at 570 nm. Cell viability was calculated by the following equation:
(ODtreated/ODcontrol)×100%.
Each experiment was performed independently. Cell death was measured by LDH analysis.
Th cells were seeded on a 24-well plate at a density of 5×10^4 per well. After the photosensitizer treatment thereto, blue light was irradiated thereto as described above. Each culture medium was prepared. For LDH analysis, LDH Cytotoxicity Assay kit (Cayman Chemical Company, Ann Arbor, Mich., USA) was used according to the producer protocol. 100 μL of the supernatant of the cultured cells was transferred from the well to a corresponding well of the new plate, and then 100 μL of the reaction solution was added to each well. The plates were incubated for 30 minutes at room temperature while executing gentle shaking thereof with an orbital shaker. The absorbance was measured at 490 nm using a plate reader.

[3] = test system: GFP cells and non-GFP cells; test: Peristaltic pump experiment, Hoechst 33342 and PI double staining; format: cell-based; conditions: 100 μM RB, 4 hours, flow 1 ml/min, 473 nm at 80 mW, repeated passes
Description: (1) Non-GFP and GFP cells were seeded in a 100 mm dish at a density of 1×10^7 cells. The next day, 100 μM of rose bengal (RB, santacruz, sc-203757) was applied thereto (in the subsequent procedure, light exposure was avoided as much as possible). A 4 mm ID×6 mm OD×1 mm wall sized transparent tube (Tygon, E-3603) was connected to an EP-1 Econo Pump (Bio-rad, 731-9001) in the dark room. A laser device was prepared.
In four hours after the RB treatment, cells were harvested using trypsin, suspended in 20 ml of the culture medium, and placed in a 50 ml tube. Using a pump, the cell solution passed through the tubing at a flow rate of 1 ml/min and was irradiated with light of 473 nm at an intensity of 80 mW. This process was repeated 2, 4, 8, and 10 times. The resulting cells were seeded in a 1-ml 12-well plate. The next day, double staining was performed to compare the death amounts of non-GFP and GFP cells with each other.
0.5×10^7 of non-GFP cells and 0.5×10^7 of GFP cells were mixed with each other (total 1×10^7). […]
PDT-treated cells were seeded onto a 12-well plate (1 mL per well) while controlling the PDT-treated cells to have a confluence of 50% or larger. […] The number of dead cells (PI-stained cells)/total number of cells*100 per cell image was calculated. Then, the cell death percentage was measured by calculating the average value between the calculated values of three cell images.

O=C1OC2(c3cc(I)c(O)c(I)c3Oc3c2cc(I)c(O)c3I)c2c(Cl)c(Cl)c(Cl)c(Cl)c21 [RB, rose bengal]
tumor growth ([1]; GFP+ B16F10 cells in mouse, 473 nm laser light, FIG. 3D, 3E): remarkable tumor inhibiting effect | eGFP+ cells removed in grafted tumor ([1]; mixture of eGFP+ and eGFP− sublines of H460 and B16F10 grafted to mouse, after second round of 473 nm irradiation, FIG. 3B, 3C): ~80% | selective cell death of eGFP+ versus eGFP− 4T1 cells ([2]; blue laser light (473 nm), FIG. 1B): the cells selectively died | eGFP+ cells selectively killed ([2]; exposed to 473 nm laser light after RB treatment, FIG. 2A): ~60% | cytotoxicity, eGFP+ versus eGFP− cells ([2]; extremely high concentrations of RB and extremely long exposure time, FIG. 2C): a similar level of cytotoxicity was observed between eGFP+ and eGFP− cells | cell death percentage, eGFP+ versus eGFP− cells ([2]; higher RB concentration and longer exposure time, FIG. 2C): cell death percentage of eGFP+ cells was higher than that of eGFP− cells | death of GFP versus non-GFP cells in mixed culture [3]: only GFP cells were specifically killed

Source: US20190365927A1, “COMPOSITION FOR PHOTODYNAMIC THERAPY USING GENE EXPRESSING FLUORESCENT PROTEIN AND PHOTOSENSITIZER, AND PHOTODYNAMIC THERAPY METHOD USING SAME” (priority 2017, published 2019)
